Results from patent US20030073662A1, “Regulation of cellular functions by ectopic expression of non-endogenous cell signalling receptors” (priority 1995, published 2003).
Where two headings read alike, the source gives them in different places. Positions of bridges follow the written chain, without caps; N, C: chain ends. No end group written: not given here.

Key:
Sprague-Dawley rats = experiment: Modulation of serum glucose in rats after in vivo transfer of the TRH-R cDNA to the liver; design: species or system rat
Protocol: (§1) Sprague-Dawley rats (250-300 g, 3 months old, fed ad libitum) were anaesthetized with ketamine-HCl (60 mg/kg) and xylazine (5 mg/kg). The Ad vectors [AdCMV.mTRH-R, AdCMV.βgal, AdCMV.Null (the “Null” vector is similar to the other vectors except that the expression cassette contains the CMV promoter but no recombinant gene) (31)] were administered via the right external jugular vein (5×10^9 pfu, 100 μl 0.9% NaCl). The livers were recovered 5 days later.
The vectors AdCMV.mTRH-R or AdCMV.Null (5×10^9 pfu), or saline (0.9%) as negative control (all in 100 μl) were administered to rats as described above. Five days later, the animals were anaesthetized by methoxyflurane (Pitman-Moore, Mundelein, Ill.) inhalation and the left and right external jugular veins were cannulated. After 15 min to permit stabilization, a 15 min baseline period was started, during which serum samples for glucose levels were obtained every 5 min. At “0 time” methyl-TRH (500 μg in 100 μl) or saline (0.9%, 100 μl ) was administered in one cannula and the serum samples obtained from the other cannula every 5 min for 55 min. Serum glucose levels were determined by colormetric assay (Sigma Diagnostics, St. Louis, Mo.).
The baseline glucose levels were determined for each animal as an average from −15 to 0 before administration of methyl-TRH or saline. The data are presented as the absolute change from the average baseline serum glucose level (mM) using each individual animal as its own control, and averaging the values at each time point for each group of animals. AdCMV.mTRH-R (IV)/TRH=vector administered intravenously at day 0, methyl-TRH administered at day 5, n=6 animals; AdCMV.mTRH-R(IP)/TRH=vector administered via the portal vein at day 0, methyl-TRH administered at day 5, n=5; AdCMV.Null(IV)/TRH=vector administered intravenously at day 0, methyl-TRH at day 5, n=6; saline/TRH=saline administered instead of vector at day 0, methyl-TRH at day 5, n=6; and naive/saline=nothing administered at day 0, saline at day 5, n=5. The data is presented as the mean for all animals in the group at each time point. The normal range for serum glucose Sprague-Dawley rats is 2.5 6.7 mM(36).
FIG. 9 illustrates the average change in serum glucose levels from baseline. The average change in serum glucose levels from baseline was determined for each time point from 15 to 55 min after administration of methyl-TRH or saline on day 5. The data are presented as mean±standard deviation. All statistical comparisons were made using the two-tailed Student's t-test.

[1] = system: mouse TRH-R / phosphoinositide pathway in primary hepatocytes; experiment: Stimulation of inositol phosphate formation in hepatocytes from rats after in vivo transfer of the TRH-R cDNA; assay type: cell-based, rat
Protocol: (§2) Primary hepatocytes were exposed to the vectors AdCMV.βgal or AdCMV.mTRH-R. After 24 hr, the cells were labeled for 24 hr with myo-[^3H]inositol (myo-[2-^3H]inositol; 20 Ci/mmol, Amersham Corporation, Arlington Heights, Ill.), incubated (5 min, 37° C.) with 10 mM LiCl, stimulated (60 min, 37° C.) with methyl-TRH. The cells were then lysed, the inositol phosphates were separated by anion-exchange chromatography and the radioactivity counted. The fold stimulation of inositol phosphates formation was calculated as: (dpm in inositol phosphates ×100/dpm in lipids of stimulated cells) (dpm in inositol phosphates ×100/dpm in lipids of unstimulated cells) (35). For each dose of vector, triplicate measurements were made in hepatocytes from two different animals.
as §1
Measurement of inositol phosphates formation was identical to that described for FIG. 3. Triplicate measurements were made from three individual animals per condition.

[2] = target: T1, mouse thyrotropin releasing hormone receptor (TRH-R) (Mus musculus, UniProt P21761); assay type: binding
T1 construct: containing the protein-coding region of the mouse TRH-R cDNA, nucleotides 233-1462 of plasmid pBSmTRHR; expressed in transfected cells; host or cells: Primary Sprague-Dawley rat hepatocytes transduced with adenovirus AdCMV.mTRH-R, either in vitro (moi 1-100) or in vivo (i.v., hepatocytes isolated 5 days later)
T1 sequence (P21761 whole entry): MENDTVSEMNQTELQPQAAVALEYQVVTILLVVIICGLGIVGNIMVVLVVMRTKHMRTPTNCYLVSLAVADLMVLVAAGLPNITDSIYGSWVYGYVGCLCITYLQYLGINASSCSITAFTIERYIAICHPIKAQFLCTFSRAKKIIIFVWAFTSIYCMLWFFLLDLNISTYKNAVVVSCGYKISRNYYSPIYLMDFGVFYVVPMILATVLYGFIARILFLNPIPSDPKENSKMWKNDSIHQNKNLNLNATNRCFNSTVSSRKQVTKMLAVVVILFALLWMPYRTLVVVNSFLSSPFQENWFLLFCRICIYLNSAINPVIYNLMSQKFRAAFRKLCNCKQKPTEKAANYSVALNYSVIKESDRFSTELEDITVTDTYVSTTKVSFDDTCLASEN
Protocol: (§3) FIG. 2 illustrates the binding of methylthyrotropin releasing hormone (methyl-TRH) to hepatocytes following adenovirus-mediated in vitro transfer of the TRH-R cDNA. […] Following incubation for 24 hr with the vectors AdCMV.βgal or AdCMV.mTRH-R, the hepatocytes (10^6/well) were incubated for 60 min with [^3H]methyl-TRH (82.5 Ci/mmol, New England Nuclear-Dupont, Boston, Mass.) or [^3H]methyl-TRH plus excess unlabeled methyl-TRH (Sigma, St. Louis, Mo.). Free ligand was removed by aspirating the medium and washing the cells 5 times with 2 ml (4° C.) Hanks balanced salt solution. Cell associated radioactivity was measured by dissolving the cells with 1 ml of 0.4 N NaOH and counting. Specific binding of the [^3H]methyl-TRH was calculated as: [(dpm of [^3H]methyl-TRH)-(dpM [^3 H]methyl-TRH in the presence of unlabeled methyl-TRH)] (34). For each dose of the vector, triplicate measurements were made in hepatocytes from two different animals. The number of TRH-R receptor sites was calculated assuming a one-to-one stoichiometry of ligand to receptor and a homogeneous distribution of TRH-Rs.

[3] = target: T1, mouse thyrotropin releasing hormone receptor (TRH-R); experiment: [3H]methyl-TRH binding to primary hepatocytes from rats after in vivo adenovirus-mediated transfer of the TRH-R cDNA; design: species or system rat
Protocol: as §3, §1
FIGS. 4 and 5 are Northern analyses. Liver RNA (10 μg/lane) was evaluated with a mouse TRH-R cDNA probe (FIG. 4, lanes 1 and 2) or, as a positive control, […] cDNA (FIG. 5, lanes 3 and 4). The sizes of the transcripts are indicated. Lanes 1 and 3 (FIG. 4 and FIG. 5, respectively) are animals receiving AdCMV. βgal. […] The analysis of [^3H]methyl-TRH binding was identical to that described for FIG. 2. Triplicate measurements were made from three individual animals per condition.

[4] = system: mouse TRH-R / phosphoinositide pathway in primary hepatocytes; experiment: Stimulation of inositol phosphate formation in hepatocytes after in vitro transfer of the TRH-R cDNA; assay type: cell-based, rat
Text: The replication-deficient recombinant adenovirus vectors are all E1a^−, partial E1b^−, partial E3^− based on adenovirus type 5, in which an expression cassette containing a promoter, driving the expression of a recombinant gene, is inserted at the site of the El deletion. AdCMV.mTRH-R contains an expression cassette with the cytomegalovirus early intermediate promoter/enhancer (CMV) followed by the mouse thyrotropin releasing hormone receptor (TRH-R) cDNA (30). AdCMV.βgal carries the CMV promoter and the E.coli LacZ gene [encoding β-galactosidase (βgal)] (31). The adenovirus vectors were prepared, purified, and titered as previously described (32,33). […]
as §2, with “For each dose of vector, triplicate measurements were made in hepatocytes from two different animals.” left out

[5] = hepatocytes uninfected or infected with control vector AdCMV.βgal
[6] = read-out: Kd of methyl-TRH binding
[7] = hepatocytes from AdCMV.mTRH-R infected animals, not shown

Compound: [Arg^8]vasopressin (CYFQNCPRG-NH2; disulfide 1-6; ends not checked; UniProt P01185 20-28, looked up) [positive control for rise in blood glucose]
- change in blood glucose (Sprague-Dawley rats; positive control, intravenous route, 55 min evaluation, not shown): an increase in blood glucose, followed by a decrease

Compound: NC(=O)[C@@H]1CCCN1C(=O)[C@H](Cc1cnc[nH]1)NC(=O)[C@@H]1CCC(=O)N1 [TRH, thyrotropin-releasing hormone]
- fold stimulation of inositol phosphate formation above controls of no added methyl-TRH ([1]; hepatocytes from animals infected 5 days previously with AdCMV.mTRH-R): 16.9±1.8 fold
- stimulation of inositol phosphate formation ([1]; hepatocytes from uninfected animals and animals infected in vivo with AdCMV.βgal): no stimulation of inositol phosphate formation

Compound: Cn1cnc(C[C@H](NC(=O)[C@@H]2CCC(=O)N2)C(=O)N2CCC[C@H]2C(N)=O)c1 [methyl-TRH, methylthyrotropin releasing hormone]
- internalization of ligand-receptor complex ([2]; hepatocytes infected with AdCMV.mTRH-R, not shown): internalized
- specific binding of methyl-TRH [2, 5]: no specific binding
- Kd [2, 6]: 3.18 ± 0.39 nM
- internalization of methyl-TRH complex [3, 7]: underwent internalization
- methyl-TRH specific binding ([3]; hepatocytes from animals receiving AdCMV.mTRH-R in vivo): high levels of methyl-TRH specific binding
- methyl-TRH specific binding ([3]; hepatocytes from naive animals or animals receiving control vector AdCMV.βgal): no specific methyl-TRH binding
- Kd [3, 6]: 2.51 ± 0.32 nM
- inositol phosphates formation ([4]; hepatocytes infected in vitro with AdCMV.mTRH-R, dependent on vector dose): increased amounts of inositol phosphates
- inositol phosphates formation [4, 5]: no increase in inositol phosphates
- period of increase in formation of inositol phosphates after addition [1, 7]: at least 1 hr
- increase in blood glucose over baseline from 15 to 55 min after administration (Sprague-Dawley rats; methyl-TRH 500 μg IV, rats given AdCMV.mTRH-R intravenously 5 days previously): 1.73 ± 0.26 mM
- change in blood glucose over baseline (Sprague-Dawley rats; methyl-TRH IV, control rats given saline (similar with AdCMV.Null) 5 days previously): small increase in blood glucose
- time of peak rise in blood glucose after administration (Sprague-Dawley rats; methyl-TRH IV, rats given AdCMV.mTRH-R intravenously 5 days previously): 15 min
- time for which elevation in blood glucose was maintained (Sprague-Dawley rats; methyl-TRH IV, rats given AdCMV.mTRH-R intravenously 5 days previously, experiment terminated at 55 min): at least 55 min
- rise in blood glucose compared with intravenous vector group (Sprague-Dawley rats; methyl-TRH IV, rats given AdCMV.mTRH-R via the portal vein 5 days previously): superimposable
